The values that follow come from US11208422B2, “Substituted bridged diazepane derivatives and use thereof as TASK-1 and TASK-3 inhibitors” (Bayer Pharma Aktiengesellschaft, priority 2017, dated 2021).

Common to all, as to assay type: cell-based
In test [1] the target is T1, recombinant TASK-3 (Homo sapiens (Human), UniProt Q9NPC2). The test can be described thus: Inhibition of recombinant TASK-3 in stably transfected CHO cells (KCl-induced depolarization, voltage-sensitive dye, FLIPR). Conditions: depolarization induced by 40 mM potassium chloride, some mean values from multiple determinations.
The target in test [2] is T2, recombinant TASK-1 (Homo sapiens (Human), UniProt O14649). The test can be described thus: Inhibition of recombinant TASK-1 in stably transfected CHO cells (KCl-induced depolarization, voltage-sensitive dye, FLIPR). Particulars: depolarization induced by 40 mM potassium chloride, some mean values from multiple determinations.
Test [3] deals with T1, recombinant TASK-3. Description: Two-electrode voltage clamp analysis of human TASK-3 channel expressed in Xenopus laevis oocytes. Particulars: TASK-3 IC50, human TASK-3 in Xenopus laevis oocytes. On the procedure: (§1) Xenopus laevis oocytes were selected as described elsewhere by way of illustration [Decher et al., FEBS Lett. 492, 84-89 (2001)]. […] For the electrophysiological analysis of the channel proteins expressed in the oocytes, the two-electrode voltage clamp technique [Stühmer, Methods Enzymol. 207, 319-339 (1992)] was used. The measurements were conducted as described [Decher et al., FEBS Lett. 492, 84-89 (2001)] at room temperature (21-22° C.) using a Turbo TEC 10CD amplifier (NPI), recorded at 2 kHz and filtered with 0.4 kHz. Substance administration was performed using a gravitation-driven perfusion system. Here, the oocyte is located in a measuring chamber and exposed to the solvent stream of 10 ml/min. The level in the measuring chamber is monitored and regulated by sucking off the solution using a peristaltic pump.

Test [4] deals with T2, recombinant TASK-1. The test can be described thus: Two-electrode voltage clamp analysis of human TASK-1 channel expressed in Xenopus laevis oocytes. Particulars: TASK-1 IC50, human TASK-1 in Xenopus laevis oocytes. The protocol: as §1
(In two-electrode clamp one electrode senses voltage and the other passes current.)

T2 sequence (O14649 whole entry): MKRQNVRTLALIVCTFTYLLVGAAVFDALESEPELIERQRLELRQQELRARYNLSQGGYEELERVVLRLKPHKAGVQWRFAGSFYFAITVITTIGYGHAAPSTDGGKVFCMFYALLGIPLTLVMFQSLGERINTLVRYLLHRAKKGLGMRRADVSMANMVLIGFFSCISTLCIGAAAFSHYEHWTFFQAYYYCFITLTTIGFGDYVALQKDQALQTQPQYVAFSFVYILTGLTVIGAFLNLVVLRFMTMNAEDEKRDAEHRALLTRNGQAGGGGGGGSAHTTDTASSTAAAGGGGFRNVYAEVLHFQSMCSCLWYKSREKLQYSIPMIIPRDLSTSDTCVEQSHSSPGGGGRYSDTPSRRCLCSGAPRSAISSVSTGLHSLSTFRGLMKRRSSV
T1 sequence (Q9NPC2 whole entry): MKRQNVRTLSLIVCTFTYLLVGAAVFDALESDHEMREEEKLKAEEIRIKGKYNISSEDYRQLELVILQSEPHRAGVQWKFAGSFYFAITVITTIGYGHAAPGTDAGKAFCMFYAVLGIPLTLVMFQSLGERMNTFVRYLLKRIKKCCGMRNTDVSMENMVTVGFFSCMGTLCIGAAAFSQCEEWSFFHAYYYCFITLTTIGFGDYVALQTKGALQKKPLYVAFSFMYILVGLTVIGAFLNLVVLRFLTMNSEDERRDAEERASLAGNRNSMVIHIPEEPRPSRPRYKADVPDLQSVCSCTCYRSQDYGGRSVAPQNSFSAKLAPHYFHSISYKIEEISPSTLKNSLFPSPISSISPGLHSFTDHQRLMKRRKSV

For orientation: IC50 means the midpoint of a concentration-inhibition curve. In the case of `COc1ccc(F)c(C(=O)N2C3CCC2CN(Cc2c(-c4ccc(Cl)cn4)nc4ccccn24)CC3)n1` (single isomer, unassigned) [Example 15, [3-{[2-(5-Chloropyridin-2-yl)imidazo[1,2-a]pyridin-3-yl]methyl}-3,9-diazabicyclo[4.2.1]non-9-yl](3-fluoro-6-methoxypyridin-2-yl)methanone], the IC50 on recombinant TASK-3 [1] worked out at 7.3 nM; on recombinant TASK-1 [2] it was 250 nM; at recombinant TASK-3 [3], 15.5 ± 1.5 nM; at recombinant TASK-1 [4], 7.54 ± 1.4 nM.

Take `COc1ccc(F)c(C(=O)N2C3CCN(Cc4c(-c5ccc(Cl)cc5)nc5ccccn45)CC2COC3)n1` (single isomer, unassigned) [Example 11]: the 50% inhibitory concentration (IC50) was found to be 1.1 nM on recombinant TASK-3 [1], 113 nM at recombinant TASK-1 [2], 4.8 ± 0.4 nM at recombinant TASK-3 [3] and 11.4 ± 2.2 nM at recombinant TASK-1 [4].

As for `COc1ccc(F)c(C(=O)N2C3CCN(Cc4c(-c5ccc(Cl)cc5)nc5ccccn45)CC2COC3)n1` (single isomer, unassigned) [Example 12], the half-maximal inhibitory concentration (IC50) at recombinant TASK-3 [1] stood at 2.5 nM; at recombinant TASK-1 [2] it was 60.5 nM; at recombinant TASK-3 [3], 13 ± 0.9 nM; on recombinant TASK-1 [4], 17.6 ± 2.2 nM.

`COc1ccc(F)c(C(=O)N2C3CCC2CN(Cc2c(-c4ccc(C(C)C)cc4)nc4ncccn24)CC3)n1` (stereo not drawn) [Example 103]: the IC50 amounted to 200 nM on recombinant TASK-3 [1] and 1400 nM on recombinant TASK-1 [2].

Consider `O=C(c1ccccc1F)N1CCC2CCC1CN2Cc1c(-c2ccc(Cl)cn2)nc2ncccn12` (stereo not drawn) [Example 31], for which the concentration for half-maximal inhibition (IC50) at recombinant TASK-3 [1] was 47 nM; at recombinant TASK-1 [2] it was 910 nM.

Take `CC(C)c1ccc(-c2nc3ncccn3c2CN2C3CCC2CN(C(=O)c2cccc(OC(F)F)n2)CC3)cc1` (stereo not drawn) [Example 56]: the concentration for half-maximal inhibition (IC50) at recombinant TASK-3 [1] was 1000 nM; at recombinant TASK-1 [2] it was 8500 nM.

`COc1cccc(C(=O)N2CCC3CCC2CN3Cc2c(-c3ccc(Cl)cn3)nc3ccccn23)n1` (stereo not drawn) [Example 18]: the figures for the IC50 on recombinant TASK-3 [1] and on recombinant TASK-1 [2] were 167 nM and 1600 nM, respectively.

On to `COc1cccc(C(=O)N2CCC3CCC2CN3Cc2c(-c3ccc(C(C)C)cc3)nc3ncccn23)n1` (stereo not drawn) [Example 48], for which the IC50 on recombinant TASK-3 [1] came out at 430 nM; on recombinant TASK-1 [2], 12000 nM.

As to `O=C(c1ccccc1F)N1C2CCN(Cc3c(-c4ccc(Cl)cc4)nc4ncccn34)CC1COC2` (racemic) [Example 74, [3-{[2-(4-chlorophenyl)imidazo[1,2-a]pyrimidin-3-yl]methyl}-8-oxa-3,10-diazabicyclo[4.3.1]dec-10-yl](2-fluorophenyl)methanone], the figures for the concentration for half-maximal inhibition (IC50) at recombinant TASK-3 [1] and at recombinant TASK-1 [2] were 200 nM and 5000 nM, respectively.
